In article PMC3944116 (CPT: Pharmacometrics & Systems Pharmacology, 2014):

Experiments:
[1] = tested on: CYP3A4; experiment: Pharmacogenetic covariate analysis: CYP3A4*22 on CL/F; type: in vivo, human; details: stated as % lower in text; univariate on base model
[2] = tested on: CYP3A4/CYP3A5; details: for Mean value (%), difference in CL/F, cluster C1 vs C4: C1: CYP3A5*1 noncarriers and CYP3A4*22 carriers; for Mean value (%), difference in CL/F, cluster C2 vs C4: C2: CYP3A5*1 noncarriers and CYP3A4*22 noncarriers
[3] = cited from earlier work
[4] = Population PK modeling; details: for Q/F, intercompartmental clearance: F fixed 0.5/1/0.23
[5] = tested on: CYP3A5; experiment: Pharmacogenetic covariate analysis: CYP3A5*3 on CL/F; type: in vivo, human; details: final model; fractional change of CL/F in CYP3A5*1 carriers
[6] = base model without covariates, population estimate
[7] = final model with covariates, population estimate
[8] = final model, median of 1,000 bootstrap runs

| lower clearance of CYP3A4*22 carriers compared with noncarriers [1] [%] | Mean value (%), difference in CL/F, cluster C1 vs C4 ([2]; univariate on base model) [%] | Mean value (%), difference in CL/F, cluster C2 vs C4 ([2]; univariate on base model) [%] | Lagtime of absorption [4, 6] [h] | Q/F, intercompartmental clearance [4, 6] [L/h] | Vp/F, apparent peripheral distribution volume ([4]; base model without covariates, population estimate, fixed to 500 for tacrolimus) [L] | Vp/F ([4]; final model with covariates, fixed to 500 for tacrolimus) [L] | Ka [4, 7] [h⁻¹] | Lagtime [4, 7] [h] | Q/F [4, 7] [L/h] | Vc/F [4, 7] [L] | CL/F [4, 8] [L/h] | IBW on Vc/F, covariate effect ([4]; final model, ideal BW centered on population median, exponential function) | CYP3A5*3 on CL/F, covariate effect [5] | difference in clearance introduced for noncarriers of the CYP3A5*1 allele by CYP3A4*22 carriership ([2]; C1 vs C2) [%] | Mean value (%), difference in CL/F, cluster C3 vs C4 ([2]; C3: CYP3A5*1 carriers and CYP3A4*22 carriers, univariate on base model) [%] | DDPR ≤25 mg (IOV F) [4, 8] | HTC on CL/F + IOV F, covariate effect ([4]; final model, hematocrit) | SMILES | plasma fraction bound to plasma proteins [3] [%] |
| --- | --- | --- | --- | --- | --- | --- | --- | --- | --- | --- | --- | --- | --- | --- | --- | --- | --- | --- | --- |
| 7 | −15 | −10 | 0.71 | 42.7 | 348 | 343 | 7 | 0.71 | 43.1 | 140 | 16.7 | −0.96 |  |  |  |  |  | CO[C@H]1C[C@@H]2CC[C@@H](C)[C@@](O)(O2)C(=O)C(=O)N2CCCC[C@H]2C(=O)O[C@H]([C@H](C)C[C@@H]2CC[C@@H](OCCO)[C@H](OC)C2)CC(=O)[C@H](C)/C=C(\C)[C@@H](O)[C@@H](OC)C(=O)[C@H](C)C[C@H](C)/C=C/C=C/C=C/1C [Everolimus] | 75 |
|  | −47 | −33 | 0.81 | 17.2 |  |  | 0.55 | 0.81 | 21 | 25.5 |  |  | 0.52 | 14 | −3 | 0.32 | −0.587 | C=CC[C@@H]1/C=C(\C)C[C@H](C)C[C@H](OC)[C@H]2O[C@@](O)(C(=O)C(=O)N3CCCC[C@H]3C(=O)O[C@H](/C(C)=C/[C@@H]3CC[C@@H](O)[C@H](OC)C3)[C@H](C)[C@@H](O)CC1=O)[C@H](C)C[C@@H]2OC [Tacrolimus] |  |
